According to patent US11896591B2, “Compositions and methods for preparing and using mitochondrial uncouplers” (UNIVERSITY OF VIRGINIA PATENT FOUNDATION, priority 2017, dated 2024):

test system: whole cells; experiment: Oxygen consumption rate (OCR) in whole cells, Seahorse XF-24 Flux Analyzer; format: cell-based; settings: binned EC50 values; increase in oxygen consumption rate in whole cells
Procedure: Biological activities of the compounds synthesized is determined by determining increase in oxygen consumption rate (OCR).
OCR is measured using a Seahorse XF-24 Flux Analyzer (Seahorse Biosciences, North Billerica, MA). NMuLi, C2C12, and L6 cells are seeded in a Seahorse 24-well tissue culture plate at a density of 3.5×10^4 cells/well, isolated cardiomyocytes at a density of 4×10^4 cells/well, and human primary fibroblasts at a density of 1.1×10^4 cells/well. The cells are then allowed to adhere for 24 h. […] Compounds are injected during the assay and OCR is measured using 2 min measurement periods.
2-3 wells are used per condition and averaged over three plates (n=6-9). Statistical significance is determined by two-way ANOVA with Bonferroni's posttest.

| Structure (SMILES) | EC50 |
| --- | --- |
| Fc1ccccc1Nc1nc2nonc2nc1Nc1cccc(C(F)(F)F)c1 [Compound 4v, N^5-(2-fluorophenyl)-N^6-(3-(trifluoromethyl)phenyl)-[1,2,5]oxadiazolo[3,4-b]pyrazine-5,6-diamine] | < 5 µM |
| Cn1c(C(F)(F)F)nc2nc(Nc3ccccc3F)c(Nc3ccc(OC(F)(F)F)cc3)nc21 [Compound 13p, 1-Methyl-N^5-(2-fluorophenyl)-N^6-(4-(trifluoromethoxy)phenyl)-2-(trifluoromethyl)-imidazo[4,5-b]pyrazine-5,6-diamine] | > 20 µM |
| Fc1ccccc1Nc1nc2nc(C(F)(F)F)[nH]c2nc1Nc1ccccc1 [Compound 12s, N^5-(2-fluorophenyl)-N^6-phenyl-2-(trifluoromethyl)-1H-imidazo[4,5-b]pyrazine-5,6-diamine] | 5 to 20 µM |
| COc1ccc(Nc2nc3nonc3nc2Nc2ccccc2F)cc1 [Compound 4l, N^5-(2-fluorophenyl)-N^6-(4-methoxyphenyl)-[1,2,5]oxadiazolo[3,4-b]pyrazine-5,6-diamine] | < 5 µM |
| FC(F)(F)c1cccc(Nc2nc3nonc3nc2Nc2cccc(C(F)(F)F)c2)c1 [Compound 3r, N^5,N^6-bis(3-(trifluoromethyl)phenyl)-[1,2,5]oxadiazolo[3,4-b]pyrazine-5,6-diamine] | < 5 µM |
| Fc1ccc(Nc2nc3nonc3nc2Nc2ccccc2F)c(F)c1 [Compound 4f, N^5-(2,4-difluorophenyl)-N^6-(2-fluorophenyl)-[1,2,5]oxadiazolo[3,4-b]pyrazine-5,6-diamine] | < 5 µM |
| FC(F)(F)Oc1ccc(Nc2nc3nc(C(F)(F)F)[nH]c3nc2Nc2ccc(OC(F)(F)F)cc2)cc1 [Compound 12m, N^5,N^6-bis(4-(trifluoromethoxy)phenyl)-2-(trifluoromethyl)-1H-imidazo[4,5-b]pyrazine-5,6-diamine] | 5 to 20 µM |
| Cc1ccc(Nc2nc3c(nc2Nc2ccccc2F)nc(C(F)(F)F)n3C)cc1 [Compound 13u, 1-Methyl-N^5-(2-fluorophenyl)-N^6-(p-tolyl)-2-(trifluoromethyl)-imidazo[4,5-b]pyrazine-5,6-diamine] | > 20 µM |
| Fc1cc(Nc2nc3nonc3nc2Nc2ccc(OC(F)(F)F)c(F)c2)ccc1OC(F)(F)F [Compound 3bb, N^5,N^6-bis(3-fluoro-4-(trifluoromethoxy)phenyl)-[1,2,5]oxadiazolo[3,4-b]pyrazine-5,6-diamine] | < 5 µM |
| Fc1ccccc1Nc1nc2nonc2nc1Nc1ccc(C(F)(F)F)cc1 [Compound 4w, N^5-(2-fluorophenyl)-N^6-(4-(trifluoromethyl)phenyl)-[1,2,5]oxadiazolo[3,4-b]pyrazine-5,6-diamine] | < 5 µM |
| Fc1ccccc1Nc1nc2nonc2nc1Nc1ccccc1C(F)(F)F [Compound 4u, N^5-(2-fluorophenyl)-N^6-(2-(trifluoromethyl)phenyl)-[1,2,5]oxadiazolo[3,4-b]pyrazine-5,6-diamine] | < 5 µM |
| FC(F)(F)c1cccc(Nc2nccnc2Nc2cccc(C(F)(F)F)c2)c1 [Compound 16b, N^2,N^3-bis(3-(trifluoromethyl)phenyl)pyrazine-2,3-diamine] | < 5 µM |
| c1ccc(Nc2nc3nonc3nc2Nc2ccccc2)cc1 [Compound 3ee, N^5,N^6-diphenyl-[1,2,5]oxadiazolo[3,4-b]pyrazine-5,6-diamine] | < 5 µM |
| FC(F)(F)Oc1ccc(Nc2nccnc2Nc2ccc(OC(F)(F)F)cc2)cc1 [Compound 16n, N^2,N^3-bis(4-(trifluoromethoxy)phenyl)pyrazine-2,3-diamine] | < 5 µM |
| Fc1ccccc1Nc1nc2nonc2nc1NC1CCCCC1 [Compound 7f, N^5-cyclohexyl-N^6-(2-fluorophenyl)-[1,2,5]oxadiazolo[3,4-b]pyrazine-5,6-diamine] | 5 to 20 µM |
| Fc1ccccc1Nc1nc2nonc2nc1Nc1cccc(OC(F)(F)F)c1 [Compound 4r, N^5-(2-fluorophenyl)-N^6-(3-(trifluoromethoxy)phenyl)-[1,2,5]oxadiazolo[3,4-b]pyrazine-5,6-diamine] | 5 to 20 µM |
| CCCNc1nc2[nH]c(C(F)(F)F)nc2nc1Nc1ccccc1F [Compound 12w, N^5-(2-fluorophenyl)-N^6-propyl-2-(trifluoromethyl)-1H-imidazo[4,5-b]pyrazine-5,6-diamine] | > 20 µM |
| Fc1ccc(Nc2nc3nonc3nc2Nc2ccccc2F)cc1 [Compound 4d, N^5-(2-fluorophenyl)-N^6-(4-fluorophenyl)-[1,2,5]oxadiazolo[3,4-b]pyrazine-5,6-diamine] | < 5 µM |
| Fc1ccccc1Nc1nc2nc(C(F)(F)F)[nH]c2nc1Nc1ccc(OC(F)(F)F)cc1 [Compound 12p, N^5-(2-fluorophenyl)-N^6-(4-(trifluoromethoxy)phenyl)-2-(trifluoromethyl)-1H-imidazo[4,5-b]pyrazine-5,6-diamine] | < 5 µM |
| Cn1c(C(F)(F)F)nc2nc(Nc3ccccc3C(F)(F)F)c(Nc3ccccc3C(F)(F)F)nc21 [Compound 13c, N^5,N^6-bis(2-(trifluoromethyl)phenyl)-1-methyl-2-(trifluoromethyl)-imidazo[4,5-b]pyrazine-5,6-diamine] | 5 to 20 µM |
| FC(F)(F)c1ccccc1Nc1nc2nonc2nc1Nc1ccccc1C(F)(F)F [Compound 3q, N^5,N^6-bis(2-(trifluoromethyl)phenyl)-[1,2,5]oxadiazolo[3,4-b]pyrazine-5,6-diamine] | < 5 µM |
| CCCNc1nc2nonc2nc1Nc1ccccc1F [Compound 7c, N^5-(2-fluorophenyl)-N^6-propyl-[1,2,5]oxadiazolo[3,4-b]pyrazine-5,6-diamine] | 5 to 20 µM |

Next, values leading:

| EC50 | Structure (SMILES) |
| --- | --- |
| < 5 µM | Fc1cc(C(F)(F)F)ccc1Nc1nc2nc(C(F)(F)F)[nH]c2nc1Nc1ccc(C(F)(F)F)cc1F [Compound 12g, N^5,N^6-bis(2-fluoro-4-(trifluoromethyl)phenyl)-2-(trifluoromethyl)-1H-imidazo[4,5-b]pyrazine-5,6-diamine] |
| 5 to 20 µM | Cn1c(C(F)(F)F)nc2nc(Nc3ccc(OC(F)(F)F)c(F)c3)c(Nc3ccc(OC(F)(F)F)c(F)c3)nc21 [Compound 13f, N^5,N^6-bis(3-fluoro-4-(trifluoromethoxy)phenyl)-1-methyl-2-(trifluoromethyl)-imidazo[4,5-b]pyrazine-5,6-diamine] |
| < 5 µM | Fc1ccccc1Nc1nc2nonc2nc1Nc1cccc(C(F)(F)F)c1F [Compound 4bb, N^5-(2-fluoro-3-(trifluoromethyl)phenyl)-N^6-(2-fluorophenyl)-[1,2,5]oxadiazolo[3,4-b]pyrazine-5,6-diamine] |
| < 5 µM | Fc1ccccc1Nc1nc2nonc2nc1Nc1ccc(OC(F)(F)F)cc1 [Compound 4s, N^5-(2-fluorophenyl)-N^6-(4-(trifluoromethoxy)phenyl)-[1,2,5]oxadiazolo[3,4-b]pyrazine-5,6-diamine] |
| < 5 µM | Cn1c(C(F)(F)F)nc2nc(Nc3ccc(C(F)(F)F)cc3F)c(Nc3ccc(C(F)(F)F)cc3F)nc21 [Compound 13g, N^5,N^6-bis(2-fluoro-4-(trifluoromethyl)phenyl)-1-methyl-2-(trifluoromethyl)-imidazo[4,5-b]pyrazine-5,6-diamine] |
| 5 to 20 µM | COC(=O)n1c(C(F)(F)F)nc2nc(Nc3ccccc3F)c(Nc3ccccc3F)nc21 [Compound 14a, Methyl 5,6-bis((2-fluorophenyl)amino)-2-(trifluoromethyl)-imidazo[4,5-b]pyrazine-1-carboxylate] |
| 5 to 20 µM | Cn1c(C(F)(F)F)nc2nc(Nc3ccc(OC(F)(F)F)cc3)c(Nc3ccc(OC(F)(F)F)cc3)nc21 [Compound 13m, 1-Methyl-N^5,N^6-bis(4-(trifluoromethoxy)phenyl)-2-(trifluoromethyl)-imidazo[4,5-b]pyrazine-5,6-diamine] |
| 5 to 20 µM | FC(F)(F)c1cc(Nc2nccnc2Nc2cc(C(F)(F)F)cc(C(F)(F)F)c2)cc(C(F)(F)F)c1 [Compound 16f, N^2,N^3-bis(3,5-bis(trifluoromethyl)phenyl)pyrazine-2,3-diamine] |
| > 20 µM | CCCNc1nc2c(nc1Nc1ccccc1F)nc(C(F)(F)F)n2C [Compound 13w, 1-Methyl-N^5-(2-fluorophenyl)-N^6-propyl-2-(trifluoromethyl)-imidazo[4,5-b]pyrazine-5,6-diamine] |
| > 20 µM | Cc1ccc(Nc2nc3nc(C(F)(F)F)n(C)c3nc2Nc2ccc(C)cc2)cc1 [Compound 13k, 1-Methyl-N^5,N^6-di-p-tolyl-2-(trifluoromethyl)-imidazo[4,5-b]pyrazine-5,6-diamine] |
| 5 to 20 µM | Fc1ccc(C(F)(F)F)cc1Nc1nc2nc(C(F)(F)F)[nH]c2nc1Nc1cc(C(F)(F)F)ccc1F [Compound 12b, N^5,N^6-bis(2-fluoro-5-(trifluoromethyl)phenyl)-2-(trifluoromethyl)-1H-imidazo[4,5-b]pyrazine-5,6-diamine] |
| 5 to 20 µM | Fc1cc(F)cc(Nc2nc3nc(C(F)(F)F)[nH]c3nc2Nc2cc(F)cc(F)c2)c1 [Compound 12i, N^5,N^6-bis(3,5-difluorophenyl)-2-(trifluoromethyl)-1H-imidazo[4,5-b]pyrazine-5,6-diamine] |
| > 20 µM | Fc1ccccc1Nc1nc2nonc2nc1NCCC(F)(F)F [Compound 7d, N^5-(2-fluorophenyl)-N^6-(3,3,3-trifluoropropyl)-[1,2,5]oxadiazolo[3,4-b]pyrazine-5,6-diamine] |
| < 5 µM | Fc1ccc(C(F)(F)F)cc1Nc1nc2nonc2nc1Nc1cc(C(F)(F)F)ccc1F [Compound 3y, N^5,N^6-bis(2-fluoro-5-(trifluoromethyl)phenyl)-[1,2,5]oxadiazolo[3,4-b]pyrazine-5,6-diamine] |
| 5 to 20 µM | Fc1c(Nc2nc3nc(C(F)(F)F)[nH]c3nc2Nc2cccc(C(F)(F)F)c2F)cccc1C(F)(F)F [Compound 12e, N^5,N^6-bis(2-fluoro-3-(trifluoromethyl)phenyl)-2-(trifluoromethyl)-1H-imidazo[4,5-b]pyrazine-5,6-diamine] |
